Measurements reported in US20230126893A1, “[(1,4,5-TRISUBSTITUTED-1H-PYRAZOL-3-YL)SULFANYL]ACETIC ACID DERIVATIVES, SALTS THEREOF, AND USE THEREOF AS ACTIVE HERBICIDAL INGREDIENTS” (BAYER AKTIENGESELLSCHAFT, priority 2020, published 2023).

How the values were obtained:
Type in all cases: in vivo
[1] = system: Amaranthus retroflexus; assay: Pre-emergence herbicidal effect against AMARE; conditions: 1280 g/ha, visual score after 3 weeks, 100% = plants have died, 0% = like control plants
Description: (§1) 1. Pre-emergence herbicidal effect and crop plant compatibility Seeds of monocotyledonous and dicotyledonous weed plants and crop plants are laid out in sandy loam soil in wood-fibre pots and covered with soil. The compounds of the invention, formulated in the form of wettable powders (WP) or as emulsion concentrates (EC), are then applied to the surface of the covering soil as aqueous suspension or emulsion at a water application rate equating to 600 to 800 L/ha with addition of 0.2% wetting agent. After the treatment, the pots are placed in a greenhouse and kept under good growth conditions for the trial plants. The damage to the test plants is scored visually after a test period of 3 weeks by comparison with untreated controls (herbicidal activity in percent (%): 100% activity=the plants have died, 0% activity=like control plants). [table]

[2] = system: Veronica persica; assay: Post-emergence herbicidal effect against VERPE; conditions: 1280 g/ha, visual assessment about 3 weeks after treatment, 100% = plants have died, 0% = like control plants
Method: (§2) [table] 2. Post-emergence herbicidal effect and crop plant compatibility Seeds of monocotyledonous and dicotyledonous weed and crop plants are laid out in sandy loam soil in wood-fibre pots, covered with soil and cultivated in a greenhouse under good growth conditions. 2 to 3 weeks after sowing, the test plants are treated at the one-leaf stage. The compounds of the invention, formulated in the form of wettable powders (WP) or as emulsion concentrates (EC), are then sprayed onto the green parts of the plants as aqueous suspension or emulsion at a water application rate equating to 600 to 800 l/ha with addition of 0.2% wetting agent. After the test plants have been left to stand in the greenhouse under optimal growth conditions for about 3 weeks, the action of the preparations is assessed visually in comparison to untreated controls (herbicidal action in percent (%): 100% activity=the plants have died, 0% activity=like control plants).

[3] = system: Lolium rigidum; assay: Pre-emergence herbicidal effect against LOLRI; conditions: 1280 g/ha, visual score after 3 weeks, 100% = plants have died, 0% = like control plants
Description: as §1

[4] = system: Amaranthus retroflexus; assay: Post-emergence herbicidal effect against AMARE; conditions: 1280 g/ha, visual assessment about 3 weeks after treatment, 100% = plants have died, 0% = like control plants
Method: as §2

[5] = system: Tripleurospermum inodorum; assay: Pre-emergence herbicidal effect against MATIN; conditions: 1280 g/ha, visual score after 3 weeks, 100% = plants have died, 0% = like control plants
Description: as §1

[6] = system: Veronica persica; assay: Pre-emergence herbicidal effect against VERPE; conditions: 1280 g/ha, visual score after 3 weeks, 100% = plants have died, 0% = like control plants
Description: as §1

[7] = system: Stellaria media; assay: Pre-emergence herbicidal effect against STEME; conditions: 1280 g/ha, visual score after 3 weeks, 100% = plants have died, 0% = like control plants
Description: as §1

[8] = system: Poa annua; assay: Pre-emergence herbicidal effect against POAAN; conditions: 1280 g/ha, visual score after 3 weeks, 100% = plants have died, 0% = like control plants
Description: as §1

[9] = system: Alopecurus myosuroides; assay: Pre-emergence herbicidal effect against ALOMY; conditions: 1280 g/ha, visual score after 3 weeks, 100% = plants have died, 0% = like control plants
Description: as §1

[10] = system: Digitaria sanguinalis; assay: Post-emergence herbicidal effect against DIGSA; conditions: 1280 g/ha, visual score after about 3 weeks, 100% = plants have died, 0% = like control plants
Method: as §2

[11] = system: Digitaria sanguinalis; assay: Pre-emergence herbicidal effect against DIGSA; conditions: 1280 g/ha, visual score after 3 weeks, 100% = plants have died, 0% = like control plants
Description: as §1

[12] = system: Tripleurospermum inodorum; assay: Post-emergence herbicidal effect against MATIN; conditions: 1280 g/ha, visual assessment about 3 weeks after treatment, 100% = plants have died, 0% = like control plants
Method: as §2

[13] = system: Alopecurus myosuroides; assay: Post-emergence herbicidal effect against ALOMY; conditions: 1280 g/ha, visual score after about 3 weeks, 100% = plants have died, 0% = like control plants
Method: as §2

[14] = system: Setaria viridis; assay: Pre-emergence herbicidal effect against SETVI; conditions: 1280 g/ha, visual score after 3 weeks, 100% = plants have died, 0% = like control plants
Description: as §1

[15] = system: Stellaria media; assay: Post-emergence herbicidal effect against STEME; conditions: 1280 g/ha, visual assessment about 3 weeks after treatment, 100% = plants have died, 0% = like control plants
Method: as §2

[16] = system: Poa annua; assay: Post-emergence herbicidal effect against POAAN; conditions: 1280 g/ha, visual assessment about 3 weeks after treatment, 100% = plants have died, 0% = like control plants
Method: as §2

[17] = system: Echinochloa crus-galli; assay: Pre-emergence herbicidal effect against ECHCG; conditions: 1280 g/ha, visual score after 3 weeks, 100% = plants have died, 0% = like control plants
Description: as §1

[18] = system: Abutylon threophrasti; assay: Post-emergence herbicidal effect against ABUTH; conditions: 1280 g/ha, visual assessment about 3 weeks after treatment, 100% = plants have died, 0% = like control plants
Method: as §2

[19] = system: Bassia scoparia; assay: Post-emergence herbicidal effect against KCHSC; conditions: 1280 g/ha, visual assessment about 3 weeks after treatment, 100% = plants have died, 0% = like control plants
Method: as §2

Structure (SMILES)	Pre-emergence action against AMARE [1] [%]	Post-emergence action against VERPE [2] [%]	Pre-emergence action against LOLRI [3] [%]	Post-emergence action against AMARE [4] [%]	Pre-emergence action against MATIN [5] [%]	Pre-emergence action against VERPE [6] [%]	Pre-emergence action against STEME [7] [%]	Pre-emergence action against POAAN [8] [%]	Pre-emergence action against ALOMY [9] [%]	Post-emergence action against DIGSA [10] [%]	Pre-emergence action against DIGSA [11] [%]	Post-emergence action against MATIN [12] [%]	Post-emergence action against ALOMY [13] [%]	Pre-emergence action against SETVI [14] [%]	Post-emergence action against STEME [15] [%]	Post-emergence action against POAAN [16] [%]	Pre-emergence action against ECHCG [17] [%]	Post-emergence action against ABUTH [18] [%]	Post-emergence action against KCHSC [19] [%]
CCOC(=O)CSc1nn(-c2ccccc2F)c(-c2cc(Cl)cs2)c1Br [IV-001]	100	90	90	90	90	90	100	90											
O=C(O)CSc1nn(-c2ccccc2F)c(-c2ccc(F)c(F)c2)c1Br [Example I-005, {[4-Bromo-5-(3,4-difluorophenyl)-1-(2-fluorophenyl)-1H-pyrazol-3-yl]sulfanyl}acetic acid]	100	90	100	90	100	100	100	100	90	100	100	100	100	100	100				
CCOC(=O)CSc1nn(-c2cccc(F)c2F)c(-c2ccccc2)c1Br [Example I-004]	100	90	100	90	100	100	100	100	90		100	100	100	100	90	100	90		
O=C(O)CSc1nn(-c2ccccc2F)c(-c2cc(F)cc(Cl)c2)c1Br [Example I-009]	100	90	100	100	100	90	100	100	90		100	100		100	100	100	90	90	100
O=C(O)CSc1nn(-c2cccc(F)c2F)c(-c2ccccc2)c1Br [Example I-006]	100	90	90	100	100	100	90	100	90	100	100	100	100	100	100	100	90		90
